# How the values were obtained:
# MTAP(−) HL-60 cells = experiment: Coulter counts of HL-60 suspension cultures; assay type: cell-based; conditions: Example 13
# Protocol: For cell types that grow in suspension (e.g., ML-1, HL-60, K-562) medium was RPMI-1640 with 10% FBS (undialyzed).
# (§1) For adherent cell types, cell numbers were determined periodically by releasing cells with trypsin (dead cells that were no longer adherent were removed by two prior rinses of the culture dish) and placing a portion of the resulting cell suspension in a Coulter counter. For cell types that grow in suspension, portions of the culture were counted directly, without trypsin treatment. Coulter counts of cells from each dish were done twice, and almost all experiments were done in duplicate. In the presentation of results, raw data for Coulter counts is given in some cases, while in others, counts have been rounded off to two to three significant figures. (Background Coulter counts—i.e., counts of diluent alone—were insignificant.)
# For cells that grow in suspension, the effect of treatments was assessed solely by changes in Coulter count.
# • HL-60 cells were grown in RPMI 1640 with 10% FBS. 5′-dAdo, adenine, or neither were added, and after 3 hours, 5-fluorouracil (FU) was added to selected dishes. Six days later, cell numbers were assessed in a Coulter counter. • Initial cell number/ml: 8,160
# [1] = test system: MTAP-positive cells and cells lines; experiment: Applicants' tissue culture experiments on protection of MTAP-positive cells (summary statements); assay type: cell-based, human; mouse
# MTAP(−) A549 cells = experiment: Clonogenic assay of A549 cells; assay type: cell-based, human
# Protocol: (§2) Cell viability of adherent cell types was measured by clonogenic assay as follows: after releasing cells with trypsin and removing a portion of the cell suspension for Coulter counting, the remainder of the cell suspension was plated in serial dilutions in growth medium, without drugs. After a period sufficient for clones to reach a size visible by eye (usually 2 to 3 weeks), clones were stained with crystal violet in a saline/methanol solution. Dishes that had fewer than 100 clones were deemed suitable for counting. From these counts and from the dilution factors, the approximate number of viable cells, in the parent treatment dishes, was calculated. […] In clonogenic assays, clone size was often variable, especially after treatment with toxic drugs. Moreover, many of the very small clones may have arisen from cells detached during the weeks of incubation. […] Cloning efficiency for healthy, growing A549 cells was about 50%; for HF cells, efficiency was quite variable, ranging from 25 to 75% (perhaps because the HF cell stock varied, from experiment to experiment, in passage number).
# A549 cells were incubated for 4 days with additions shown below, and viable cells measured by clonogenic assay. (Results shown are approximate; see Methods) Cell count in dish at start: 40,000
# • MTAP(−) A549 lung tumor cell cultures were treated with F-Ade, with or without MTA, 5′-dAdo, or adenine (Ade), for three days. Coulter counts of cells, and viable cells as determined by clonogenic assay, are shown below: • Initial cell number: 10,340*
# • A549 cell cultures were treated with DAP, with or without 5′-dAdo or adenine, for three days. After trypsinization, one-fourth of the cell suspension was counted, and raw data is shown below, with duplicate counts for each sample. The cell suspension was also serially diluted for clonogenic assay. • Counts at start of experiment: Dish one: 36,480; 39,160; Dish two: 52,680; 51,360. • Initial viable cells by clonogenic assay: 180,000.
# • Cell cultures were treated with MTX or alanosine for one day. DAP was then added and 3 days later, cells were trypsinized and serially diluted for clonogenic assay. Results are shown below: • Initial viable cells: 146,000
# • A549 cells were plated, and after they had adhered to the substrate, medium was changed to methionine-free medium with 10% dialyzed serum. L-ethionine (Eth) and MTA were added, and after 4 days, cell cultures were trypsinized and serially diluted for clonogenic assay. • Initial number of viable cells: 160,000*
# • A549 cultures were treated with 6-thioguanine (TG) or 2,6,diaminopurine (DAP), or both, for 3 days. • Initial viable cells: 275,000 • After 3 days: […]
# MTAP-negative cell lines = experiment: Applicants' tissue culture experiments on MTAP-negative cell lines (summary statements); assay type: cell-based, human; mouse; conditions: L1210, HL-60, K-562, MCF7, MDA-MB-231, A549, PANC-1
# [2] = test system: MTAP(+) HT29 colon carcinoma cells; experiment: Coulter counts of HT29 cultures; assay type: cell-based, human; conditions: Example 12
# Protocol: as §1
# • 5′-dAdo was added to cultures of MTAP(+) HT29 colon carcinoma cells for one day. 5-fluorouracil (FU) was then added and 4 days later cultures were trypsinized, thoroughly dispersed into mostly single cells by vigorous pipetting, and counted. • Initial Coulter count at time of addition of FU: 46,000
# MTAP(+) HF cells [3] = experiment: Clonogenic assay of HF cells; assay type: cell-based, human; conditions: 30 μM 5′-dAdo, 2 μM F-Ade, 3 days
# Protocol: as §2
# • B. F-Ade was added to cultures of MTAP(+) HF cells, with or without 5′-dAdo, for 3 days. Cultures were then trypsinized and serially diluted for clonogenic assay. • Initial number of viable cells per dish: 45,000 • Viable cells after 3 days shown below:
# • HF cells were plated, and after they had adhered to the substrate, medium was changed to methionine-free medium, with 10% dialyzed serum. • Initial Coulter count: 73,000*; viable cells: 88,000 • After 3 days in methionine-free medium, with or without L-ethionine (Eth) or MTA: […]
# MTAP(+) HF cells [4] = experiment: Coculture of HF and A549-ouaR cells, clonogenic assay; assay type: cell-based, human; conditions: addition of 5′-dAdo to DAP
# Protocol: as §2
# HF and A549-ouaR (a ouabain-resistant derivative of the human lung carcinoma cell line A549, isolated by Applicants) cells were cultured together in a medium containing DAP, and with or without 5′-dAdo. After 3 days, cultures were trypsinized and serially diluted into fresh medium for clonogenic assays. Some dishes were treated with 0.1 μM ouabain to kill HF cells and permit easy visualization of surviving A549-ouaR clones. Initial viable cells: HF cells, 11,000; A549-ouaR cells, 40,000.
smiles,measurement,setting,value
"C[C@H]1O[C@@H](n2cnc3c(N)ncnc32)[C@H](O)[C@@H]1O [5′-dAdo, 5′-deoxyadenosine]",protection of HL-60 cells from FU toxicity,MTAP(−) HL-60 cells,not protected
same,protection from highly toxic doses of adenine and/or methionine competitive antagonists,"[1]; HF, mouse hematopoietic progenitors, HT-29, ML-1, EJ, T-47D, ZR-75-1, MDA-MB-468",provide protection
same,"blocking of toxicity of very high doses of 2,6-diaminopurine, 2-fluoroadenine, 6-methylpurine",[1]; normal human and mouse cells,effectively blocked
same,blocking of MeP toxicity in A549 cells,MTAP(−) A549 cells; 10 μM MeP,not
same,blocking of DAP toxicity in A549 cells,"MTAP(−) A549 cells; 100 μM DAP, Example 7",did not block
same,blocking of F-Ade toxicity in A549 cells,MTAP(−) A549 cells; 1 to 2 μM F-Ade,not
same,protection against the toxicity of adenine and/or methionine antagonists,MTAP-negative cell lines,inability
same,blocking of FU toxicity in MTAP(+) HT29 cells,[2],blocked
same,blocking of F-Ade toxicity in HF cells,MTAP(+) HF cells [3],effectively blocks
same,protection of HF cells from DAP in coculture,MTAP(+) HF cells [4],protected

# From patent US8796241B2, “Therapy of tumors and infectious agents deficient in methylthioadenosine phosphorylase” (priority 2007, dated 2014)
